Test results from the supplement of paper PMC10307832.

How the values were obtained:
Experiment in all cases: relative viability (nuclei count vs DMSO), 5 days (fraction); higher = more cells survive
LC-2-ad = test system: LC-2-ad
In short: (§1)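 Lung cancer cell lines in 1536-well plates got either a single drug or a fixed anchor-drug dose together with five library-drug doses (not always all listed) in √10 steps, by pin tool, on the day after seeding. Nuclei were counted after 5 days, and relative viability is the treated-to-vehicle ratio of nuclei counts. Values are medians of duplicate plates.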

NCI-H1792 = test system: NCI-H1792
In short: as §1

HCC-78 = test system: HCC-78
In short: as §1

NCI-H460 = test system: NCI-H460
In short: as §1

COR-L 105 = test system: COR-L 105
In short: as §1

A-427 = test system: A-427
In short: as §1

NCI-H358 = test system: NCI-H358
In short: as §1

NCI-H2170 = test system: NCI-H2170
In short: as §1

EPLC-272H = test system: EPLC-272H
In short: as §1

NCI-H1666 = test system: NCI-H1666
In short: as §1

SW 900 = test system: SW 900
In short: as §1

For `CC(=O)O[C@@]12CO[C@@H]1C[C@H](O)[C@@]1(C)C(=O)[C@H](O)C3=C(C)[C@@H](OC(=O)[C@H](O)[C@@H](NC(=O)OC(C)(C)C)c4ccccc4)C[C@@](O)([C@@H](OC(=O)c4ccccc4)[C@H]21)C3(C)C` [Docetaxel] + O=C(c1cc(Cc2n[nH]c(=O)c3ccccc23)ccc1F)N1CCN(C(=O)C2CC2)CC1 [Olaparib] (partner 8 µM), which relative viability (LC-2-ad; first compound 0.0002 µM) is on record?
Its relative viability is 0.623.

And the relative viability (LC-2-ad; first compound 0.000632 µM)?
Its relative viability is 0.411.

What about the relative viability (LC-2-ad; first compound 0.002 µM) of the same molecule?
The relative viability was 0.304.

And the relative viability (LC-2-ad; first compound 0.02 µM)?
Its relative viability is 0.191.

What about the relative viability (NCI-H1792; first compound 0.0002 µM) of the same molecule?
The relative viability was 0.281.

What about the relative viability (NCI-H1792; first compound 0.000632 µM) of the same molecule?
Its relative viability is 0.306.

What about the relative viability (NCI-H1792; first compound 0.002 µM) of the same molecule?
The relative viability was 0.0724.

And the relative viability (NCI-H1792; first compound 0.006325 µM)?
Its relative viability is 0.0761.

What about the relative viability (NCI-H1792; first compound 0.02 µM) of the same molecule?
Its relative viability is 0.0428.

And the relative viability (HCC-78; first compound 0.0002 µM)?
The relative viability was 0.859.

And the relative viability (HCC-78; first compound 0.000632 µM)?
The relative viability was 0.777.

And the relative viability (HCC-78; first compound 0.002 µM)?
The relative viability was 0.41.

What about the relative viability (HCC-78; first compound 0.006325 µM) of the same molecule?
Its relative viability is 0.329.

And the relative viability (HCC-78; first compound 0.02 µM)?
The relative viability was 0.338.

What about the relative viability (NCI-H460; first compound 0.0002 µM) of the same molecule?
The relative viability was 0.373.

What about the relative viability (NCI-H460; first compound 0.000632 µM) of the same molecule?
The relative viability was 0.31.

And the relative viability (NCI-H460; first compound 0.002 µM)?
The relative viability was 0.0608.

And the relative viability (NCI-H460; first compound 0.006325 µM)?
Its relative viability is 0.0428.

And the relative viability (NCI-H460; first compound 0.02 µM)?
Its relative viability is 0.0276.

What about the relative viability (COR-L 105; first compound 0.0002 µM) of the same molecule?
The relative viability was 0.8.

What about the relative viability (COR-L 105; first compound 0.000632 µM) of the same molecule?
The relative viability was 0.591.

What about the relative viability (COR-L 105; first compound 0.002 µM) of the same molecule?
The relative viability was 0.461.

What about the relative viability (COR-L 105; first compound 0.006325 µM) of the same molecule?
Its relative viability is 0.539.

And the relative viability (COR-L 105; first compound 0.02 µM)?
The relative viability was 0.331.

What about the relative viability (A-427; first compound 0.0002 µM) of the same molecule?
Its relative viability is 0.662.

And the relative viability (A-427; first compound 0.000632 µM)?
The relative viability was 0.704.

And the relative viability (A-427; first compound 0.002 µM)?
Its relative viability is 0.538.

And the relative viability (A-427; first compound 0.006325 µM)?
The relative viability was 0.292.

What about the relative viability (A-427; first compound 0.02 µM) of the same molecule?
Its relative viability is 0.198.

What about the relative viability (NCI-H358; first compound 0.0002 µM) of the same molecule?
Its relative viability is 0.551.

What about the relative viability (NCI-H358; first compound 0.000632 µM) of the same molecule?
Its relative viability is 0.251.

And the relative viability (NCI-H358; first compound 0.002 µM)?
The relative viability was 0.136.

What about the relative viability (NCI-H358; first compound 0.006325 µM) of the same molecule?
The relative viability was 0.147.

What about the relative viability (NCI-H358; first compound 0.02 µM) of the same molecule?
The relative viability was 0.095.

And the relative viability (NCI-H2170; first compound 0.0002 µM)?
Its relative viability is 0.611.

What about the relative viability (NCI-H2170; first compound 0.000632 µM) of the same molecule?
The relative viability was 0.475.

And the relative viability (NCI-H2170; first compound 0.002 µM)?
The relative viability was 0.342.

What about the relative viability (NCI-H2170; first compound 0.006325 µM) of the same molecule?
Its relative viability is 0.136.

And the relative viability (NCI-H2170; first compound 0.02 µM)?
The relative viability was 0.126.

What about the relative viability (EPLC-272H; first compound 0.0002 µM) of the same molecule?
Its relative viability is 0.527.

And the relative viability (EPLC-272H; first compound 0.000632 µM)?
The relative viability was 0.339.

And the relative viability (EPLC-272H; first compound 0.002 µM)?
The relative viability was 0.0991.

And the relative viability (EPLC-272H; first compound 0.006325 µM)?
The relative viability was 0.0687.

What about the relative viability (EPLC-272H; first compound 0.02 µM) of the same molecule?
Its relative viability is 0.0452.

And the relative viability (NCI-H1666; first compound 0.0002 µM)?
Its relative viability is 0.786.

And the relative viability (NCI-H1666; first compound 0.000632 µM)?
Its relative viability is 0.673.

And the relative viability (NCI-H1666; first compound 0.002 µM)?
The relative viability was 0.721.

What about the relative viability (NCI-H1666; first compound 0.006325 µM) of the same molecule?
Its relative viability is 0.703.

What about the relative viability (NCI-H1666; first compound 0.02 µM) of the same molecule?
The relative viability was 0.573.

And the relative viability (SW 900; first compound 0.0002 µM)?
The relative viability was 0.817.

And the relative viability (SW 900; first compound 0.000632 µM)?
The relative viability was 0.353.

What about the relative viability (SW 900; first compound 0.002 µM) of the same molecule?
The relative viability was 0.281.

And the relative viability (SW 900; first compound 0.006325 µM)?
The relative viability was 0.266.

What about the relative viability (SW 900; first compound 0.02 µM) of the same molecule?
The relative viability was 0.172.
